Results on ten compounds are retold here after patent publication US8952128B2, “Somatostatin-dopamine chimeric analogs” (priority 2012, dated 2015).

The structures appear in SMILES notation. Bridge positions count the residues as written; N and C are the ends. Square brackets hold non-standard residues; d marks the D form. Peptide text beside a SMILES is read from it. * marks the point of attachment. X2 = CN1C[C@H](CSCC(=O)*)C[C@@H]2c3cccc4[nH]cc(c34)C[C@H]21; 4Pal = N[C@@H](Cc1ccncc1)C(=O)O; dDab = NCC[C@@H](N)C(=O)O

In one assay the target is hSSTR2 (Homo sapiens (Human), UniProt P30874). Briefly: Intracellular calcium mobilization assay (FLIPR Calcium 4), hSSTR2.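 For all read-outs here: agonist activity read as intracellular calcium rise in cells expressing human SSTR2, loaded with a calcium-sensitive dye for 60 min at 37 °C, measured by FLIPR.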 Particulars: for improvement in EC50 over Reference Compound A: Student's t-test, one-tailed, p <0.05; for Emax: read-out: hSSTR2 % Emax ± SEM. Type of assay: cell-based.
Chain of hSSTR2 (P30874 whole entry): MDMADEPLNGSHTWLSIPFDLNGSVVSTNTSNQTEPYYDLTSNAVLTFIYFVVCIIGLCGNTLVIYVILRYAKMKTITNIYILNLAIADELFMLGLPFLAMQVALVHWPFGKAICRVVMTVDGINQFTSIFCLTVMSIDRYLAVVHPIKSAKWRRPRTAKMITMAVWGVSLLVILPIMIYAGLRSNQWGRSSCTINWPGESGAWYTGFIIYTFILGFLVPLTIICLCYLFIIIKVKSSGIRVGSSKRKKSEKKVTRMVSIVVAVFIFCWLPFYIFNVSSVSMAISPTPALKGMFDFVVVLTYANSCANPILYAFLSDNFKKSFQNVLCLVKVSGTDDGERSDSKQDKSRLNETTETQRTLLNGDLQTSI
For the next assay, the target named is hDRD2 (Homo sapiens (Human), UniProt P14416). Briefly: cell-based. Particulars: for Emax: read-out: hDRD2 % Emax ± SEM.

Method for hDRD2: The ability of select compounds according to the present invention to activate hSSTR2 and hDRD2 was determined by the intracellular calcium mobilization assay using FLIPR Calcium 4 assay kit (Molecular Devices).
Cells expressing hSSTR2 or hDRD2 were plated in 384-well microplates in tissue culture media and incubated for 16-24 hours at 37° C. in a humidified atmosphere with 5% CO2. Medium was replaced by loading buffer containing Hank's buffered saline, 20 mM HEPES, 2.5 mM probenecid and Calcium 4 dye, and the plates were incubated at 37° C. for 60 minutes.

Usually EC50 stands for the concentration at which the effect is half-maximal. Turning to `C[C@@H](O)[C@@H]1NC(=O)[C@H](CCCCN)NC(=O)[C@@H](Cc2c[nH]c3ccccc23)NC(=O)[C@H](Cc2ccccc2)NC(=O)[C@H](Cc2ccccc2)NC(=O)[C@H](CCCNC(=N)N)NC(=O)[C@H](NC(=O)[C@H](CCCCNC(=O)CSC[C@@H]2C[C@@H]3c4cccc5[nH]cc(c45)C[C@H]3N(C)C2)NC(=O)CSC[C@@H]2C[C@@H]3c4cccc5[nH]cc(c45)C[C@H]3N(C)C2)CCNC(=O)[C@H](Cc2ccccc2)NC1=O` [Reference Compound C, Dop1-Lys(Dop1)-cyclo(DDab-Arg-Phe-Phe-DTrp-Lys-Thr-Phe), reference compound] (X2-K(X2)[dDab]RFF[dW]KTF; lactam 2-C), the values for the EC50 at hSSTR2 and on hDRD2 were 68.7 ± 40.8 nM and 112 ± 39.2 nM, respectively.
Turning to `C[C@@H](O)[C@@H]1NC(=O)[C@H](CCCCN)NC(=O)[C@@H](Cc2c[nH]c3ccccc23)NC(=O)[C@H](Cc2ccncc2)NC(=O)[C@H](Cc2ccccc2)NC(=O)[C@H](CCCNC(=N)N)NC(=O)[C@H](NC(=O)CSC[C@@H]2C[C@@H]3c4cccc5[nH]cc(c45)C[C@H]3N(C)C2)CCCCNC(=O)[C@H](Cc2ccccc2)NC1=O` [Compound 24, Dop1-cyclo(DLys-Arg-Phe-4Pal-DTrp-Lys-Thr-Phe)] (X2-[dK]RF[4Pal][dW]KTF; lactam 1-C), at hSSTR2, the “improvement in EC50 over Reference Compound A” value is listed as “statistically significant improvement”. Besides, the “EC50 value lower than that for Reference Compound A” value at hSSTR2 (calcium mobilization, Tables IV and VI) is recorded as “about 9 fold”. Besides, the EC50 at hDRD2 was found to be 37.3 ± 6.4 nM.
One may read the Emax as the greatest response seen or fitted, relative to the assay's reference. Turning to `CC(=O)N(CCC(=O)NC(CN[C@@H]1CCCCNC(=O)[C@H](Cc2ccc(F)cc2)NC(=O)[C@H]([C@@H](C)O)NC(=O)[C@H](CCCCN)NC(=O)[C@@H](Cc2c[nH]c3ccccc23)NC(=O)[C@H](Cc2ccccc2)NC(=O)[C@H](Cc2ccccc2)NC(=O)[C@H](CCCNC(=N)N)NC1=O)Cc1ccc(O)cc1)C[C@@H]1C[C@@H]2c3cccc4[nH]cc(c34)C[C@H]2N(C)C1` (single isomer, unassigned) [Compound 27, 3-[N-acetyl-N-(D-6-methyl-8β-ergolinylmethyl)]-aminopropionyl-Tyr-psi(CH2NH)-cyclo(DLys-Arg-Phe-Phe-DTrp-Lys-Thr-4FPhe)], on hSSTR2, the EC50 was determined as 11.4 ± 2 nM and the Emax stood at 95.9 ± 2.4%. Also, the EC50 at hDRD2 turned out to be 50.7 ± 6.8 nM.
On to `C[C@@H](O)[C@@H]1NC(=O)[C@H](CCCCN)NC(=O)[C@@H](Cc2c[nH]c3ccccc23)NC(=O)[C@H](Cc2ccncc2)NC(=O)[C@H](Cc2ccccc2)NC(=O)[C@H](CCCNC(=N)N)NC(=O)[C@H](NC[C@H](CCCCNC(=O)CSC[C@@H]2C[C@@H]3c4cccc5[nH]cc(c45)C[C@H]3N(C)C2)NC(=O)CSC[C@@H]2C[C@@H]3c4cccc5[nH]cc(c45)C[C@H]3N(C)C2)CCCCNC(=O)[C@H](Cc2ccc(O)cc2)NC1=O` [Compound 8, Dop1-Lys(Dop1)-psi(CH2NH)-cyclo(DLys-Arg-Phe-4Pal-DTrp-Lys-Thr-Tyr)], for which, on hSSTR2, the EC50 came out at 29.8 ± 10.5 nM and the Emax worked out at 98.8 ± 2.6%. At hSSTR2 (calcium mobilization), the “improvement in % Emax over Reference Compound C” value is “statistically significant improvement”. This compound registered an EC50 on hDRD2 of 18 ± 4.1 nM.
Turning to `C[C@@H](O)[C@@H]1NC(=O)[C@H](CCCCN)NC(=O)[C@@H](Cc2c[nH]c3ccccc23)NC(=O)[C@H](Cc2ccccc2)NC(=O)[C@H](Cc2ccccc2)NC(=O)[C@H](CCCNC(=N)N)NC(=O)[C@H](NC[C@@H](Cc2ccc(O)cc2)NC(=O)CSC[C@@H]2C[C@@H]3c4cccc5[nH]cc(c45)C[C@H]3N(C)C2)CCCCNC(=O)[C@H](Cc2ccccc2)NC1=O` [Compound 41, Dop1-DTyr-psi(CH2NH)-cyclo(DLys-Arg-Phe-Phe-DTrp-Lys-Thr-Phe)], on hSSTR2, the EC50 was determined as 29.6 nM and the Emax came out at 104%. The compound also registered an EC50 at hDRD2 of 62.6 nM.
Regarding `C[C@@H](O)[C@@H]1NC(=O)[C@H](CCCCN)NC(=O)[C@@H](Cc2c[nH]c3ccccc23)NC(=O)[C@H](Cc2ccncc2)NC(=O)[C@H](Cc2ccccc2)NC(=O)[C@H](CCCNC(=N)N)NC(=O)[C@H](NC[C@H](CCCCNC(=O)CSC[C@@H]2C[C@@H]3c4cccc5[nH]cc(c45)C[C@H]3N(C)C2)NC(=O)CSC[C@@H]2C[C@@H]3c4cccc5[nH]cc(c45)C[C@H]3N(C)C2)CCCCNC(=O)[C@H](Cc2ccccc2)NC1=O` [Compound 9, Dop1-Lys(Dop1)-psi(CH2NH)-cyclo(DLys-Arg-Phe-4Pal-DTrp-Lys-Thr-Phe)], on hSSTR2, the EC50 was 22.2 ± 5.5 nM and the Emax was determined as 98.4 ± 1.6%. Further, the “improvement in % Emax over Reference Compound C” value at hSSTR2 (calcium mobilization) is listed as “statistically significant improvement”. In addition, it took 15.5 ± 3.7 nM to reach a half-maximal effect at hDRD2 (EC50).
With `C[C@@H](O)[C@@H]1NC(=O)[C@H](CCCCN)NC(=O)[C@@H](Cc2c[nH]c3ccccc23)NC(=O)[C@H](Cc2ccccc2)NC(=O)[C@H](Cc2ccccc2)NC(=O)[C@H](CCCNC(=N)N)NC(=O)[C@H](NC(=O)[C@@H](Cc2ccc(O)cc2)NC(=O)CSC[C@@H]2C[C@@H]3c4cccc5[nH]cc(c45)C[C@H]3N(C)C2)CCCCNC(=O)[C@H](Cc2ccccc2)NC1=O` [Compound 37, Dop1-DTyr-cyclo(DLys-Arg-Phe-Phe-DTrp-Lys-Thr-Phe)] (X2-[dY][dK]RFF[dW]KTF; lactam 2-C), the Emax came out at 85.5 ± 6.7% on hSSTR2 and 93.7 ± 4.3% on hDRD2.
For the compound `C[C@@H](O)[C@@H]1NC(=O)[C@H](CCCCN)NC(=O)[C@@H](Cc2c[nH]c3ccccc23)NC(=O)[C@H](Cc2ccccc2)NC(=O)[C@H](Cc2ccccc2)NC(=O)[C@H](CCCNC(=N)N)NC(=O)[C@H](NCCC[C@@H]2C[C@@H]3c4cccc5[nH]cc(c45)C[C@H]3N(C)C2)CCCCNC(=O)[C@H](Cc2ccc(F)cc2)NC1=O` [Compound 1, (D-6-methyl-8β-ergolinyl)-propionyl-psi(CH2NH)-cyclo(DLys-Arg-Phe-Phe-DTrp-Lys-Thr-4FPhe)], the results for the Emax at hSSTR2 and on hDRD2 were 98.7% and 102.1 ± 0.4%, respectively.
In the case of `C[C@@H](O)[C@@H]1NC(=O)[C@H](CCCCN)NC(=O)[C@@H](Cc2c[nH]c3ccccc23)NC(=O)[C@H](Cc2ccncc2)NC(=O)[C@H](Cc2ccccc2)NC(=O)[C@H](CCCNC(=N)N)NC(=O)[C@H](NCCSC[C@@H]2C[C@@H]3c4cccc5[nH]cc(c45)C[C@H]3N(C)C2)CCCCNC(=O)[C@H](Cc2ccc(O)cc2)NC1=O` [Compound 7, Dop1-psi(CH2NH)-cyclo(DLys-Arg-Phe-4Pal-DTrp-Lys-Thr-Tyr)], on hSSTR2, the “improvement in EC50 over Reference Compound A” value is reported as “statistically significant improvement” and the Emax turned out to be 96.9 ± 2.5%. In addition, at hDRD2, the Emax is 102 ± 5%.
In the case of `C[C@@H](O)[C@@H]1NC(=O)[C@H](CCCCN)NC(=O)[C@@H](Cc2c[nH]c3ccccc23)NC(=O)[C@H](Cc2ccccc2)NC(=O)[C@H](Cc2ccccc2)NC(=O)[C@H](CCCNC(=N)N)NC(=O)[C@H](NC(=O)CSC[C@@H]2C[C@@H]3c4cccc5[nH]cc(c45)C[C@H]3N(C)C2)CCNC(=O)[C@H](Cc2ccccc2)NC1=O` [Reference Compound A, Dop1-cyclo(DDab-Arg-Phe-Phe-DTrp-Lys-Thr-Phe), reference compound] (X2-[dDab]RFF[dW]KTF; lactam 1-C), the Emax at hSSTR2 came out at 86.2 ± 7%; at hDRD2, 59.7 ± 7%.
